Experimental data published in patent publication US8114867B2, “Oxazolidinone antibiotic derivatives” (Actelion Pharmaceuticals Ltd, priority 2007, dated 2012).

Tested on: S. aureus 29213
Assay: MIC by broth microdilution (NCCLS), S. aureus 29213
Type: cell-based
Details: Staphylococcus aureus, strain S. aureus 29213, cation-adjusted Mueller-Hinton Broth, pH 7.2-7.3
Procedure: These assays have been performed following the description given in “Methods for dilution Antimicrobial Susceptibility Tests for Bacteria that Grow Aerobically, 4th ed.; Approved standard: NCCLS Document M7-A4; National Committee for Clinical Laboratory Standards: Villanova, Pa., USA, 1997”. Minimal inhibitory concentrations (MICs; mg/l) were determined in cation-adjusted Mueller-Hinton Broth (BBL) by a microdilution method following NCCLS guidelines (National Committee for Clinical Laboratory Standards. Methods for Dilution Antimicrobial Susceptibility). The pH of the test medium was 7.2-7.3.

| Compound | MIC |
| --- | --- |
| COc1ccc2nccc(NC(=O)CNC[C@@H]3CN(c4ccc5c(c4)NC(=O)CS5)C(=O)O3)c2n1 [Example 91, N-(6-methoxy-[1,5]naphthyridin-4-yl)-2-{[(R)-2-oxo-3-(3-oxo-3,4-dihydro-2H-benzo[1,4]thiazin-6-yl)-oxazolidin-5-ylmethyl]-amino}-acetamide] | ≤ 0.063 µg/mL |
| COc1ccc2nccc(CCCCNC[C@@H]3CN(c4ccc5c(c4)NC(=O)CS5)C(=O)O3)c2n1 [Example 113, 6-((R)-5-{[4-(6-methoxy-[1,5]naphthyridin-4-yl)-butylamino]-methyl}-2-oxo-oxazolidin-3-yl)-4H-benzo[1,4]thiazin-3-one] | ≤ 0.063 µg/mL |
| COc1ccc2nccc(CCCCC[C@@H]3CN(c4ccc5c(c4)NC(=O)CS5)C(=O)O3)c2n1 [Example 125, 6-{(R)-5-[5-(6-methoxy-[1,5]naphthyridin-4-yl)-pentyl]-2-oxo-oxazolidin-3-yl}-4H-benzo[1,4]thiazin-3-one] | ≤ 0.063 µg/mL |
| COc1ccc2ncc(F)c(CCCN(C[C@H](O)CO)C[C@@H]3CN(c4ccc5c(c4)OCCO5)C(=O)O3)c2n1 [Example 135, (R)-3-(2,3-dihydro-benzo[1,4]dioxin-6-yl)-5-({((S)-2,3-dihydroxy-propyl)-[3-(3-fluoro-6-methoxy-[1,5]naphthyridin-4-yl)-propyl]-amino}-methyl)-oxazolidin-2-one] | ≤ 0.063 µg/mL |
| COc1ccc2ncc(F)c(CN(CCO)CCC[C@@H]3CN(c4ccc5c(c4)NC(=O)CO5)C(=O)O3)c2n1 [Example 179, 6-((R)-5-{3-[(3-fluoro-6-methoxy-[1,5]naphthyridin-4-ylmethyl)-(2-hydroxy-ethyl)-amino]-propyl}-2-oxo-oxazolidin-3-yl)-4H-benzo[1,4]oxazin-3-one] | ≤ 0.063 µg/mL |
| COc1ccc2ncc(F)c(CNC[C@H](O)[C@@H](O)[C@@H]3CN(c4ccc5c(c4)OCCO5)C(=O)O3)c2c1 [Example 181, (S)-3-(2,3-dihydro-benzo[1,4]dioxin-6-yl)-5-{(1R,2S)-3-[(3-fluoro-6-methoxy-quinolin-4-ylmethyl)-amino]-1,2-dihydroxy-propyl}-oxazolidin-2-one] | ≤ 0.063 µg/mL |
| COc1ccc2nccc(NCCNC[C@@H]3CN(c4ccc5c(c4)NC(=O)CS5)C(=O)O3)c2n1 [Example 201, 6-((R)-5-{[2-(6-methoxy-[1,5]naphthyridin-4-ylamino)-ethylamino]-methyl}-2-oxo-oxazolidin-3-yl)-4H-benzo[1,4]thiazin-3-one] | ≤ 0.063 µg/mL |

Other lines, results leading:

| MIC | Compound |
| --- | --- |
| ≤ 0.063 µg/mL | COc1cnc2cccc(CCC(=O)NC[C@@H]3CN(c4ccc5c(c4)NC(=O)CS5)C(=O)O3)c2c1 [Example 28, 3-(3-methoxy-quinolin-5-yl)-N-[(R)-2-oxo-3-(3-oxo-3,4-dihydro-2H-benzo[1,4]thiazin-6-yl)-oxazolidin-5-ylmethyl]-propionamide] |
| ≤ 0.063 µg/mL | COc1ccc2nccc(/C=C/CNC[C@@H]3CN(c4ccc5c(c4)OCCO5)C(=O)O3)c2n1 [Example 29, (R)-3-(2,3-dihydro-benzo[1,4]dioxin-6-yl)-5-{[(E)-3-(6-methoxy-[1,5]naphthyridin-4-yl)-allylamino]-methyl}-oxazolidin-2-one] |
| ≤ 0.063 µg/mL | COc1cnc2cccc(CCCNC[C@@H]3CN(c4ccc5c(c4)NC(=O)CS5)C(=O)O3)c2c1 [Example 35, 6-((R)-5-{[3-(3-methoxy-quinolin-5-yl)-propylamino]-methyl}-2-oxo-oxazolidin-3-yl)-4H-benzo[1,4]thiazin-3-one] |
| ≤ 0.063 µg/mL | CCC(=O)N(CCCc1ccnc2ccc(OC)nc12)C[C@@H]1CN(c2ccc3c(c2)NC(=O)CS3)C(=O)O1 [Example 38, N-[3-(6-methoxy-[1,5]naphthyridin-4-yl)-propyl]-N-[(R)-2-oxo-3-(3-oxo-3,4-dihydro-2H-benzo[1,4]thiazin-6-yl)-oxazolidin-5-ylmethyl]-propionamide] |
| ≤ 0.063 µg/mL | COc1cnc2cccc(CCCN(C)C[C@@H]3CN(c4ccc(C)c(F)c4)C(=O)O3)c2c1 [Example 43, (R)-3-(3-fluoro-4-methyl-phenyl)-5-({[3-(3-methoxy-quinolin-5-yl)-propyl]-methyl-amino}-methyl)-oxazolidin-2-one] |
| ≤ 0.063 µg/mL | COc1ccc2ncc(F)c(C(O)CCCCC3CN(c4ccc5c(c4)OCCO5)C(=O)O3)c2n1 (stereo not shown) [Example 62, 3-(2,3-dihydro-benzo[1,4]dioxin-6-yl)-5-[5-(3-fluoro-6-methoxy-[1,5]naphthyridin-4-yl)-5-hydroxy-pentyl]-oxazolidin-2-one] |
